Laboratory results as given in US8158794B2, “Hydroxyalkyl substituted imidazoquinoline compounds and methods” (3M Innovative Properties Company, priority 2005, dated 2012).
Structures can show the parent of a compound that is named as a salt. Where two headings read alike, the source gives them in different places.

Assays:
[1] = tested on: interferon (α) (IFN-α); assay: Cytokine induction in human cells: IFN-α secreted by PBMC (ELISA); assay type: cell-based; parameters: key to Maximal Response (pg/mL) IFN: *: Below experimental background level; conditions: median if more than one experiment; for minimal effective concentration: lowest tested concentration inducing response over 20 pg/mL, read-out: Minimum Effective Concentration (μM) IFN; for Maximal Response (pg/mL) IFN: background-subtracted, reference-adjusted
Source text: (§1) An in vitro human blood cell system is used to assess cytokine induction. Activity is based on the measurement of interferon (α) and tumor necrosis factor (α) (IFN-α and TNF-α, respectively) secreted into culture media as described by Testerman et. al. in “Cytokine Induction by the Immunomodulators Imiquimod and S-27609”, Journal of Leukocyte Biology, 58, 365-372 (September, 1995).
(§2) Whole blood from healthy human donors is collected by venipuncture into vacutainer tubes or syringes containing EDTA. Peripheral blood mononuclear cells (PBMC) are separated from whole blood by density gradient centrifugation using HISTOPAQUE-1077 (Sigma, St. Louis, Mo.) or Ficoll-Paque Plus (Amersham Biosciences Piscataway, N.J.). Blood is diluted 1:1 with Dulbecco's Phosphate Buffered Saline (DPBS) or Hank's Balanced Salts Solution (HBSS). Alternately, whole blood is placed in Accuspin (Sigma) or LeucoSep (Greiner Bio-One, Inc., Longwood, Fla.) centrifuge frit tubes containing density gradient medium. The PBMC layer is collected and washed twice with DPBS or HBSS and re-suspended at 4×10^6 cells/mL in RPMI complete. The PBMC suspension is added to 96 well flat bottom sterile tissue culture plates containing an equal volume of RPMI complete media containing test compound.
(§3) The compounds are solubilized in dimethyl sulfoxide (DMSO). The DMSO concentration should not exceed a final concentration of 1% for addition to the culture wells. The compounds are generally tested at concentrations ranging from 30-0.014 μM. Controls include cell samples with media only, cell samples with DMSO only (no compound), and cell samples with reference compound.
(§4) The solution of test compound is added at 60 μM to the first well containing RPMI complete and serial 3 fold dilutions are made in the wells. The PBMC suspension is then added to the wells in an equal volume, bringing the test compound concentrations to the desired range (usually 30-0.014 μM). The final concentration of PBMC suspension is 2×10^6 cells/mL. The plates are covered with sterile plastic lids, mixed gently and then incubated for 18 to 24 hours at 37° C. in a 5% carbon dioxide atmosphere.
(§5) Following incubation the plates are centrifuged for 10 minutes at 1000 rpm (approximately 200×g) at 4° C. The cell-free culture supernatant is removed and transferred to sterile polypropylene tubes. Samples are maintained at −30 to −70° C. until analysis. The samples are analyzed for IFN-α by ELISA and for TNF-α by IGEN/BioVeris Assay.
IFN-α concentration is determined with a human multi-subtype colorimetric sandwich ELISA (Catalog Number 41105) from PBL Biomedical Laboratories, Piscataway, N.J. Results are expressed in pg/mL.
(§6) In total, the data output of the assay consists of concentration values of TNF-α and IFN-α(y-axis) as a function of compound concentration (x-axis).
Analysis of the data has two steps. First, the greater of the mean DMSO (DMSO control wells) or the experimental background (usually 20 pg/mL for IFN-α and 40 pg/mL for TNF-α) is subtracted from each reading. If any negative values result from background subtraction, the reading is reported as “*”, and is noted as not reliably detectable. In subsequent calculations and statistics, “*”, is treated as a zero. Second, all background subtracted values are multiplied by a single adjustment ratio to decrease experiment to experiment variability. The adjustment ratio is the area of the reference compound in the new experiment divided by the expected area of the reference compound based on the past 61 experiments (unadjusted readings). […] The reference compound used is 2-[4-amino-2-ethoxymethyl-6,7,8,9-tetrahydro-α,α-dimethyl-1H-imidazo[4,5-c]quinolin-1-yl]ethanol hydrate (U.S. Pat. No. 5,352,784; Example 91) and the expected area is the sum of the median dose values from the past 61 experiments.
The minimum effective concentration is calculated based on the background-subtracted, reference-adjusted results for a given experiment and compound. […]

[2] = tested on: tumor necrosis factor (α) (TNF-α); assay: Cytokine induction in human cells: TNF-α secreted by PBMC (ORIGEN M-Series immunoassay); assay type: cell-based; parameters: key to Maximal Response (pg/mL) TNF: *: Below experimental background level; conditions: median if more than one experiment; for minimal effective concentration: lowest tested concentration inducing response over 40 pg/mL, read-out: Minimum Effective Concentration (μM) TNF; for Maximal Response (pg/mL) TNF: background-subtracted, reference-adjusted
Source text: as §1, §2, §3, §4, §5
The TNF-α concentration is determined by ORIGEN M-Series Immunoassay and read on an IGEN M-8 analyzer from BioVeris Corporation, formerly known as IGEN International, Gaithersburg, Md. The immunoassay uses a human TNF-α capture and detection antibody pair (Catalog Numbers AHC3419 and AHC3712) from Biosource International, Camarillo, Calif. Results are expressed in pg/mL.
as §6
Analysis of the data has two steps. First, the greater of the mean DMSO (DMSO control wells) or the experimental background (usually 20 pg/mL for IFN-α and 40 pg/mL for TNF-α) is subtracted from each reading. If any negative values result from background subtraction, the reading is reported as “*”, and is noted as not reliably detectable. In subsequent calculations and statistics, “*”, is treated as a zero. Second, all background subtracted values are multiplied by a single adjustment ratio to decrease experiment to experiment variability. The adjustment ratio is the area of the reference compound in the new experiment divided by the expected area of the reference compound based on the past 61 experiments (unadjusted readings). […]

| Compound | minimal effective concentration ([1]; 18 to 24 hours) [µM] | Maximal Response (pg/mL) IFN ([1]; tested 30-0.014 μM) | minimal effective concentration ([2]; 18 to 24 hours) [µM] | Maximal Response (pg/mL) TNF ([2]; tested 30-0.014 μM) | minimal effective concentration ([1]; Table 3, 18 to 24 hours) [µM] | minimal effective concentration ([2]; Table 3, 18 to 24 hours) [µM] | melting point [°C] | Maximal Response (pg/mL) IFN ([1]; Table 3, tested 30-0.014 μM) [pg/mL] | Maximal Response (pg/mL) TNF ([2]; Table 3, tested 30-0.014 μM) |
| --- | --- | --- | --- | --- | --- | --- | --- | --- | --- |
| CC(C)Cn1c(CCO)nc2c(N)nc3cc(-c4cccnc4)ccc3c21 [Example 3] | 0.37 | 1180 pg/mL | 3.33 | 42 pg/mL |  |  |  |  |  |
| CCOCc1nc2c(N)nc3cc(-c4cccnc4)ccc3c2n1CC(C)(C)O [Analog 3, 1-(4-amino-2-ethoxymethyl-7-pyridin-3-yl-1H-imidazo[4,5-c]quinolin-1-yl)-2-methylpropan-2-ol, reference compound] | 0.04 |  | 0.12 |  | 0.04 | 0.12 |  |  |  |
| CC(C)(O)Cn1c(CO)nc2c(N)nc3cc(-c4cccc(O)c4)ccc3c21 [Example 13] | 0.37 | 12641 pg/mL | 10 | 352 pg/mL |  |  |  |  |  |
| CC(C)C(=O)NCCCCn1c(CO)nc2c(N)nc3cc(-c4cccnc4)ccc3c21 [Example 43] | 0.37 |  | 10 |  |  |  |  |  |  |
| CC(C)(O)Cn1c(CO)nc2c(N)nc3cc(-c4cncc(CO)c4)ccc3c21 (hydrate or solvate) [Example 33] |  |  |  |  |  |  | 180 to 182 |  |  |
| CCCNC(=O)NCCCCn1c(CO)nc2c(N)nc3cc(-c4cccnc4)ccc3c21 [Example 39] | 0.37 |  | 30 |  |  |  |  |  |  |
| CC(C)C(=O)N1CCC(Cn2c(CO)nc3c(N)nc4cc(-c5cncc(CO)c5)ccc4c32)CC1 (as salt: HBr) [Example 45] |  |  |  |  |  |  | > 300 |  |  |
| Nc1nc2cc(-c3ccccc3O)ccc2c2c1nc(CCO)n2CCCN1CCCC1=O (hydrate or solvate) [Example 48] |  |  |  |  |  |  | > 250 |  |  |
| Cc1cccc(-c2ccc3c(c2)nc(N)c2nc(CO)n(CC(C)(C)O)c23)c1 [Example 9] | 30 | 87 pg/mL | >30 | * |  |  |  |  |  |
| CCc1nc2c(N)nc3cc(-c4cccnc4)ccc3c2n1CC(C)(C)O [Analog 1, 1-(4-amino-2-ethyl-7-pyridin-3-yl-1H-imidazo[4,5-c]quinolin-1-yl)-2-methylpropan-2-ol, reference compound] | 0.12 |  | 0.37 |  | 0.12 | 0.37 |  |  |  |
| Nc1nc2cc(-c3cccnc3)ccc2c2c1nc(CO)n2CCCCNC(=O)NC1CCCC1 [Example 41] | 0.04 |  | 10 |  |  |  |  |  |  |
| Nc1nc2cc(-c3cncc(CO)c3)ccc2c2c1nc(CO)n2CC1CCCCC1 [Example 49] | 3.33 |  | > 30 | * |  |  |  |  |  |
| CCCc1nc2c(N)nc3cc(-c4cccnc4)ccc3c2n1CC(C)(C)O [Analog 2, 1-(4-amino-2-propyl-7-pyridin-3-yl-1H-imidazo[4,5-c]quinolin-1-yl)-2-methylpropan-2-ol, reference compound] | 0.04 |  | 0.37 |  | 0.04 | 0.37 |  |  |  |
| CC(C)(O)Cn1c(CO)nc2c(N)nc3cc(-c4cncc(CO)c4)ccc3c21 [Example 33] | 0.37 |  | > 30 | * |  |  |  |  |  |
| Nc1nc2cc(-c3cccc(C(=O)N4CCOCC4)c3)ccc2c2c1nc(CO)n2CC1CCCCC1 [Example 50] | 1.11 |  | > 30 | * |  |  |  |  |  |
| CC(C)(O)Cn1c(CO)nc2c(N)nc3cc(-c4cccnc4)ccc3c21 [Example 8] | 0.37 | 2886 pg/mL | 10 | 51 pg/mL | 1.11 | >30 |  | 2251 | * (Below experimental background level of 40/pg mL) |
| CC(C)(O)Cn1c(CCO)nc2c(N)nc3cc(-c4ccccc4)ccc3c21 [Example 2] | 0.37 | 1274 pg/mL | 3.33 | 67 pg/mL |  |  |  |  |  |
| CC(C)C(=O)N1CCC(Cn2c(CO)nc3c(N)nc4cc(-c5cccnc5)ccc4c32)CC1 [Example 35] | 1.11 |  | > 30 | * |  |  |  |  |  |
| CC(C)Cn1c(CCO)nc2c(N)nc3cc(-c4cncc(CO)c4)ccc3c21 [Example 4] | 0.12 | 1891 pg/mL | 10 | 349 pg/mL |  |  |  |  |  |
| Cc1ccc(-c2ccc3c(c2)nc(N)c2nc(CO)n(CC(C)(C)O)c23)cc1 [Example 10] | 0.37 | 1681 pg/mL | 0.37 | 7423 pg/mL |  |  |  |  |  |
| CC(C)C(=O)N1CCC(Cn2c(CO)nc3c(N)nc4cc(-c5cncc(CO)c5)ccc4c32)CC1 [Example 45] | > 30 | * | > 30 | * |  |  |  |  |  |
